Results on two substances are retold here after US20080039362A1, “Combination drug therapy for reducing scar tissue formation” (Afmedica, Inc., priority 2006, published 2008).

The subject of one data set is Human platelets. Put plainly: Platelet adhesion and aggregation on surfaces. The following applies: 30 minutes exposure; FIG. 21. The format is cell-based. The method, then: Platelet aggregation, used as a marker of polymer hemocompatibility, was visualized using human platelets that were exposed to PEA and a fibrinogen-coated surface for 30 minutes.
Data set [1] has as its system Human coronary artery endothelial cells (EC). The method, then:
Human peripheral blood monocytes were isolated by density centrifugation and magnetic separation (Miltenyi). Human platelets were purchased from the San Diego Blood Bank. Human coronary artery endothelial cells and aortic smooth muscle cells were purchased from Cambrex. Tissue culture polystyrene plates (TCPS; Falcon) with or without fibronectin coating (1 mg/ml) were used as controls.
Human coronary artery endothelial cells (EC) and aortic smooth muscle cells (SMC) were incubated on the polymers for 72 hours.

Take fibrinogen: the “platelet adhesion and aggregation” value in the data set with Human platelets was “aggregated as expected”. As to poly(ester amide) [PEA], the toxic effects result in data set [1] is reported as “no toxic effects”.
